Data from BigSolDB 2.1.

COc1c(C)c2c(c(O)c1C/C=C(\C)CCC(=O)OCCN1CCOCC1)C(=O)OC2
solubility (mole fraction)
Settings | 278.15 K | 283.15 K | 288.15 K | 293.15 K | 298.15 K | 303.15 K | 308.15 K | 313.15 K | 318.15 K
in DMSO | – | – | – | 0.0166 | 0.0214 | 0.0263 | 0.0322 | 0.0389 | 0.046
in ethanol | 0.00352 | 0.00394 | 0.00449 | 0.00511 | 0.00581 | 0.00659 | 0.00749 | 0.00847 | 0.0095
in isopropanol | 0.00538 | 0.00592 | 0.00664 | 0.00732 | 0.00821 | 0.0091 | 0.00998 | 0.011 | 0.0121
in propylene glycol | 0.000349 | 0.000486 | 0.000633 | 0.00081 | 0.001 | 0.00122 | 0.00145 | 0.00172 | 0.00199
in water | 2.62e-07 | 4.16e-07 | 6.62e-07 | 1.05e-06 | 1.55e-06 | 2.12e-06 | 2.84e-06 | 3.68e-06 | 4.51e-06
